Results from patent US20090011424A1, “Cancer-suppressing agents” (Tokyo Medical and Dental University, priority 2005, published 2009).

How the values were obtained:
[1] = tested on: SMS-KAN cells; experiment: soft agar colony formation after gene introduction; type: cell-based, human; settings: 3 weeks, 500 μg/ml G418, vs empty vector
Method: (§1) Adherence to solid matter has been known as an example of a difference between properties of normal cells and those of cancer cells under culture conditions. In other words, it is necessary for normal cells to adhere to solid matter for cell proliferation (anchorage dependence). When normal cells are cultured in a soft agar medium (about 0.33%), they can not proliferate while floating in such medium. However, many cancer cells lack anchorage dependence so that they can proliferate in a soft agar medium. Since floating cancer cells cannot move in a soft agar medium, a single cancer cell is repeatedly divided such that the divided cells form a colony in 1 to 3 weeks time. Since there is a correlation between the ability of the cell to form a soft agar colony and the implanted tumor forming ability, the degree of such ability has been widely used as an index of malignancy (Shin, S. I., et al., Proc. Natl. Acad. Sci. USA 72, 4435, 1975). A full-length NR1I2 cDNA was inserted into pCMV-Tag3 vector (Stratagene) in which an myc peptide can be added to the amino terminal of an inserted gene (PCMV-Tag3-NR1I2). In addition, we already have discovered that a fusion product of a herpes-virus-derived VP16 protein and an NR1I2 protein has stronger transcriptional activity than that of an NR1I2 protein alone. […] Then, the number of colonies was counted (FIGS. 8A and 8B).

[2] = tested on: IMR32 cells; experiment: soft agar colony formation after gene introduction; type: cell-based, human; settings: 3 weeks, 500 μg/ml G418, vs empty vector
Method: as §1

Substance: NR1I2 gene: human-derived gene, nuclear receptor subfamily 1, group I, member 2 (pregnane X receptor, PXR), nucleotide sequence SEQ ID NO: 1
- number of colonies [1]: significantly reduced
- number of colonies [2]: significantly reduced
